Test results as given in ChEMBL document CHEMBL3132769, “Fragment growing to retain or alter the selectivity of anchored kinase hinge-binding fragments” (Medchemcomm, 2014).

Columns and labels:
[1] = target: Calcium/calmodulin-dependent protein kinase type II subunit gamma (Homo sapiens) (UniProt Q13555); assay: Inhibition of human CAMK2 gamma catalytic domain expressed in baculovirus assessed as substrate phosphorylation using fluorescence-labelled peptides as substrate at 0.2 uM after 90 mins by microfluidic peptide phosphorylation assay
Chain of Calcium/calmodulin-dependent protein kinase type II subunit gamma (Homo sapiens) (Q13555 whole entry, the tested form may be a part): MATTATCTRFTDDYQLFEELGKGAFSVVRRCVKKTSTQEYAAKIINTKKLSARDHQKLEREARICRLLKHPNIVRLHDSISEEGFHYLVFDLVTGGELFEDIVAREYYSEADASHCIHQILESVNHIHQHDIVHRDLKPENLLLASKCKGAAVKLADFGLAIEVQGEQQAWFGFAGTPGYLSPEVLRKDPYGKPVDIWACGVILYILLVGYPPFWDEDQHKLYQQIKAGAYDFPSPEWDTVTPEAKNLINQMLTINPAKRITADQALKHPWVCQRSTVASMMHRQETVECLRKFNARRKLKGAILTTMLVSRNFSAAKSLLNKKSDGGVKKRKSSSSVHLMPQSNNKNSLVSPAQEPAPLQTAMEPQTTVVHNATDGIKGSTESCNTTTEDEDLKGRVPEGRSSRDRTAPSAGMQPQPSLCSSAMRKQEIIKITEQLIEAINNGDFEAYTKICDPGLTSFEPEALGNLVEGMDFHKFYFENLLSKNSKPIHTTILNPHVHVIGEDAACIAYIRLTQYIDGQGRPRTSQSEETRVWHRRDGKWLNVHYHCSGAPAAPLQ

[2] = target: T1, Protein kinase C zeta type (Homo sapiens) (UniProt Q05513); assay: Inhibition of human full length PKC zeta expressed in baculovirus assessed as substrate phosphorylation using fluorescence-labelled peptides as substrate at 420 uM after 90 mins by microfluidic peptide phosphorylation assay
T1 sequence (whole entry): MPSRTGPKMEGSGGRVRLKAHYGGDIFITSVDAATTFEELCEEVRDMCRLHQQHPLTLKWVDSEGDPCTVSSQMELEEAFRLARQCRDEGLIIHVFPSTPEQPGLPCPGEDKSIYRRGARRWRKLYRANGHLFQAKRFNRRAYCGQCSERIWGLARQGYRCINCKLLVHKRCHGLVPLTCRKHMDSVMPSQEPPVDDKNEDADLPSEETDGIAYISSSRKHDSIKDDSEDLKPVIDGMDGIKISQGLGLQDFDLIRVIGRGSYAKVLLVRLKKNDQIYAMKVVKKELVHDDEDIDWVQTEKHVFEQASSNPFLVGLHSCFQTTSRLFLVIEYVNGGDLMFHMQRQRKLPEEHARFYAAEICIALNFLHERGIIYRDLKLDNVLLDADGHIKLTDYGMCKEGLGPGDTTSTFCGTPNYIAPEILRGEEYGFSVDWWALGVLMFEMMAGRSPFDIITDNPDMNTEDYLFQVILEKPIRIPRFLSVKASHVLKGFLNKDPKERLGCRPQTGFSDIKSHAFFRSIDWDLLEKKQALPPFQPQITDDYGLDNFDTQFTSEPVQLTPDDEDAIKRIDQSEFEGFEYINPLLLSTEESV

[3] = target: MAP kinase p38 (Homo sapiens) (UniProt O15264+Q15759+Q16539+P53778); assay: Inhibition of human full length p38 beta2 expressed in Escherichia coli cell assessed as substrate phosphorylation using fluorescence-labelled peptides as substrate at 420 uM after 90 mins by microfluidic peptide phosphorylation assay
[4] = target: Fibroblast growth factor receptor 2 (Homo sapiens) (UniProt P21802); assay: Inhibition of human FGFR2 catalytic domain expressed in baculovirus assessed as substrate phosphorylation using fluorescence-labelled peptides as substrate at 420 uM after 90 mins by microfluidic peptide phosphorylation assay
Chain of Fibroblast growth factor receptor 2 (Homo sapiens) (P21802 22-821 limits assumed): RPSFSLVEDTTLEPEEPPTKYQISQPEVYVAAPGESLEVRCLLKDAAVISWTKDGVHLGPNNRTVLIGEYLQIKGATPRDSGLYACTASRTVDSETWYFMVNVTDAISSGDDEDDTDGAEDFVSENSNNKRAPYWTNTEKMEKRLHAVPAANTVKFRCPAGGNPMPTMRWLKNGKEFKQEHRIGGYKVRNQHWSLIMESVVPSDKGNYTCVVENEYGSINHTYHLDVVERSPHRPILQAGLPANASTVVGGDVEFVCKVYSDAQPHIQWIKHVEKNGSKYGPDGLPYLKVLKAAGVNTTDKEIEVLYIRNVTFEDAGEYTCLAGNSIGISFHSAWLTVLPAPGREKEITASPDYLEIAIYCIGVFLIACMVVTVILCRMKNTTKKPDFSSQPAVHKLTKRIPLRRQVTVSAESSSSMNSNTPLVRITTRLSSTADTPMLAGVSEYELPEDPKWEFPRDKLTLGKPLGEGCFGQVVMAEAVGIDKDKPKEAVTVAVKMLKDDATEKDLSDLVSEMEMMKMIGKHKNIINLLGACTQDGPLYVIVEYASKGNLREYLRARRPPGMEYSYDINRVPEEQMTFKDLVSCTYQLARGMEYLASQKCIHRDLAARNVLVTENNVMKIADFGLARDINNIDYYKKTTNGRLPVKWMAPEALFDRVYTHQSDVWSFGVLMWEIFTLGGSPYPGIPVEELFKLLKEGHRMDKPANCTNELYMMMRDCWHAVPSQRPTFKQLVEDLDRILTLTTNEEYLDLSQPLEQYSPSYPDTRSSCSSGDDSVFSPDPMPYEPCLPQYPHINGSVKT

[5] = target: Mitogen-activated protein kinase 14 (Homo sapiens) (UniProt Q16539); assay: Inhibition of human truncated p38 alpha expressed in Escherichia coli cell assessed as substrate phosphorylation using fluorescence-labelled peptides as substrate at 9 uM after 90 mins by microfluidic peptide phosphorylation assay
Chain of Mitogen-activated protein kinase 14 (Homo sapiens) (Q16539 whole entry, the tested form may be a part): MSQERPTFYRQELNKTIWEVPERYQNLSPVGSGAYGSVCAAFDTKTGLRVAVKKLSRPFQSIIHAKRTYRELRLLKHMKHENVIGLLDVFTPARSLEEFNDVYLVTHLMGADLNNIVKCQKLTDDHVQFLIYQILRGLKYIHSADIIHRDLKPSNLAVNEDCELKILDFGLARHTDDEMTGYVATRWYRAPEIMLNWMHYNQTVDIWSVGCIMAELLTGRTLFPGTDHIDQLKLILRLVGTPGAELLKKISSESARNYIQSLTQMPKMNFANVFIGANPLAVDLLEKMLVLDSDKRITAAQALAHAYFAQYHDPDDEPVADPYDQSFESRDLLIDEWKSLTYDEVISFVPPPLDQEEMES

[6] = target: Cyclin-dependent kinase 2 (Homo sapiens) (UniProt P24941); assay: Inhibition of human full length CDK2 expressed in baculovirus assessed as substrate phosphorylation using fluorescence-labelled peptides as substrate at 1000 uM after 90 mins by microfluidic peptide phosphorylation assay
[7] = target: T2, Aurora kinase C (Homo sapiens) (UniProt Q9UQB9); assay: Inhibition of human full length AurC expressed in baculovirus assessed as substrate phosphorylation using fluorescence-labelled peptides as substrate at 2 uM after 90 mins by microfluidic peptide phosphorylation assay
T2 sequence (whole entry): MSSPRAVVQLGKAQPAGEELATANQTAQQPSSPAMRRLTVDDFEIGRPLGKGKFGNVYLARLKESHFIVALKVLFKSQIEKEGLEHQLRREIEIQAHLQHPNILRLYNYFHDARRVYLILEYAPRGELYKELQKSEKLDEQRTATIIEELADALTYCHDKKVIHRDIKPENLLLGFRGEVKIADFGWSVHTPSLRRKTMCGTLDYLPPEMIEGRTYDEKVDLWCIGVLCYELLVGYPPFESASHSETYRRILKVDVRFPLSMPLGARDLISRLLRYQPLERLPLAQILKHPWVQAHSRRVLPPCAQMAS

[8] = test system: Tyrosine-protein kinase ABL1 (Homo sapiens), P00519 [Q252H]; assay: Inhibition of human truncated ABL Q252H mutant expressed in baculovirus assessed as substrate phosphorylation using fluorescence-labelled peptides as substrate at 2 uM after 90 mins by microfluidic peptide phosphorylation assay
[9] = target: Mitogen-activated protein kinase 3 (Homo sapiens) (UniProt P27361); assay: Inhibition of human full length ERK1 expressed in Escherichia coli cell assessed as substrate phosphorylation using fluorescence-labelled peptides as substrate at 8 uM after 90 mins by microfluidic peptide phosphorylation assay
Chain of Mitogen-activated protein kinase 3 (Homo sapiens) (P27361 whole entry): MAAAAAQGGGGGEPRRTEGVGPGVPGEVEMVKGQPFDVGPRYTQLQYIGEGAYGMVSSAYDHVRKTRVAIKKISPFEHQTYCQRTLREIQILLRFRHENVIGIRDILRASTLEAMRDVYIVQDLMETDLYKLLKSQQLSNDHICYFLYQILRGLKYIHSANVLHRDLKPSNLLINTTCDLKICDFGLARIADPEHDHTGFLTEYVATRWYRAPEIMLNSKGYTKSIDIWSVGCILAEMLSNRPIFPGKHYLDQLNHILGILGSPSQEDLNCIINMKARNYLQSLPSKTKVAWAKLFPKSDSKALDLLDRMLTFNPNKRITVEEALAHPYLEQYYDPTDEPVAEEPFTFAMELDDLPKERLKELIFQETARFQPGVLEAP

[10] = target: T3, cGMP-dependent protein kinase 1 (Homo sapiens) (UniProt Q13976); conditions: 0.1 uM
T3 sequence (whole entry): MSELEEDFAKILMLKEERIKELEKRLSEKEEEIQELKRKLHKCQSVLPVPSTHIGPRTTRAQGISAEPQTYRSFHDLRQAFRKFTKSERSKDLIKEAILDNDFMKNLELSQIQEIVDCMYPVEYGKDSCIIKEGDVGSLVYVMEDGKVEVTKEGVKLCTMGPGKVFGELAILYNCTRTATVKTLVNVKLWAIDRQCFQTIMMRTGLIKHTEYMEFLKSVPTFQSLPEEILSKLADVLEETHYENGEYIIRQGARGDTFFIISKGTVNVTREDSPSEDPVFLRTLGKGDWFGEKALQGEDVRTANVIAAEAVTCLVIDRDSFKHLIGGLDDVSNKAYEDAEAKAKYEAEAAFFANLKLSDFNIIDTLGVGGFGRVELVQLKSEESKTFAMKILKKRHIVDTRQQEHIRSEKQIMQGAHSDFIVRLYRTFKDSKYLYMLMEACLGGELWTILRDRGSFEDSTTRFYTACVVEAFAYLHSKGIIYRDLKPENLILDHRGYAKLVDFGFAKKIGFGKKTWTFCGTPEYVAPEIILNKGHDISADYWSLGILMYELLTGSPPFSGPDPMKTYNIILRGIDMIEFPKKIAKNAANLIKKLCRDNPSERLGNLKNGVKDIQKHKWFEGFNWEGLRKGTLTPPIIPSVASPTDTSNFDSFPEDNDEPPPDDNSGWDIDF
Description: Inhibition of human full length PKG-1beta expressed in baculovirus assessed as substrate phosphorylation using fluorescence-labelled peptides as substrate at 0.1 uM after 90 mins by microfluidic peptide phosphorylation assay

## Clc1ccc(C2(c3ccc(-c4ncnc5[nH]cnc45)cc3)CCNCC2)cc1
[1]
  inhibition: 15%

## c1nc(N2CCOCC2)c2nc[nH]c2n1
[2]
  inhibition: 46%
[3]
  inhibition: 1.5%
[4]
  inhibition: 93%

## NCC1CN(c2ncnc3[nH]c4cnccc4c23)CCO1 (stereo not given)
[5]
  inhibition: 2.5%

## c1cnc2[nH]ccc2c1
[6]
  inhibition: 45.5%

## NC1CCN(c2ncnc3[nH]ccc23)CC1
[7]
  inhibition: 13.5%
[8]
  inhibition: 17%

## NCC1CCN(c2ncnc3[nH]ccc23)CC1
[9]
  inhibition: 8.5%

## C[C@H](CN(C)C)Oc1nc(Nc2cc3cccc(Cl)c3cn2)cnc1C#N
[10]
  inhibition: 0%
